Measurements taken from article PMC3985615 (Journal of medicinal chemistry, 2013).
Blank lines part the entries; values can stand above or below the molecule they belong to.

Tests used:
Hsp90 in SKBr3 lysate = assay: FP saturation binding of probes to Hsp90 in cancer cell lysate; design: species or system human; settings: 4 °C
Hsp90β = Hsp90β (Homo sapiens, UniProt P08238); assay: FP saturation binding assay of probes, Hsp90β; settings: mP at saturation minus mP of probe alone
Hsp90α = Hsp90α (Homo sapiens, UniProt P07900); assay: FP saturation binding assay of probes, Hsp90α; settings: mP at saturation minus mP of probe alone
Grp94 = Grp94 (Canis lupus familiaris, UniProt P41148); assay: FP saturation binding assay of probes, Grp94; design: species or system canine; settings: for assay window, Grp94: mP at saturation minus mP of probe alone
Trap-1 [1] = settings: cited from earlier work
Trap-1 [2] = molecular target: T1, Trap-1 (Homo sapiens, UniProt Q12931); settings: from FP competition IC50, Table 1
T1 sequence (Q12931 60-704): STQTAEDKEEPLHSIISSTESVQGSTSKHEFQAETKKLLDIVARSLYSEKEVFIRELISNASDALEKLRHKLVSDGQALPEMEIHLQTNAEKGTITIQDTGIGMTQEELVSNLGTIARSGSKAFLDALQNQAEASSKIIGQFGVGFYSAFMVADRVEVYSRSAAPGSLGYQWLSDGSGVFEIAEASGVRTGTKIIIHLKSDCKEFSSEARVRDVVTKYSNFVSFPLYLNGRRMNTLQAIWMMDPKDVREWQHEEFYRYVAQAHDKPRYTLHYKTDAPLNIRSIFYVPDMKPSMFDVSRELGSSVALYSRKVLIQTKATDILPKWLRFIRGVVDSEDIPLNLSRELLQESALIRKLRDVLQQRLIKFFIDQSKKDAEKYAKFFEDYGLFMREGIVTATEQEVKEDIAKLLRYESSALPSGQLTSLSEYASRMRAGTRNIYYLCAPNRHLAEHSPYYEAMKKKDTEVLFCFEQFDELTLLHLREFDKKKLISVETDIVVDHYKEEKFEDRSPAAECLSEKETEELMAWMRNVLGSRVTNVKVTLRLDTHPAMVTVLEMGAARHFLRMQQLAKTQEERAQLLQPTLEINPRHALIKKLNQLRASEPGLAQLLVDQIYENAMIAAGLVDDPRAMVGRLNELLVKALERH

Grp94, sequence (P41148 22-804): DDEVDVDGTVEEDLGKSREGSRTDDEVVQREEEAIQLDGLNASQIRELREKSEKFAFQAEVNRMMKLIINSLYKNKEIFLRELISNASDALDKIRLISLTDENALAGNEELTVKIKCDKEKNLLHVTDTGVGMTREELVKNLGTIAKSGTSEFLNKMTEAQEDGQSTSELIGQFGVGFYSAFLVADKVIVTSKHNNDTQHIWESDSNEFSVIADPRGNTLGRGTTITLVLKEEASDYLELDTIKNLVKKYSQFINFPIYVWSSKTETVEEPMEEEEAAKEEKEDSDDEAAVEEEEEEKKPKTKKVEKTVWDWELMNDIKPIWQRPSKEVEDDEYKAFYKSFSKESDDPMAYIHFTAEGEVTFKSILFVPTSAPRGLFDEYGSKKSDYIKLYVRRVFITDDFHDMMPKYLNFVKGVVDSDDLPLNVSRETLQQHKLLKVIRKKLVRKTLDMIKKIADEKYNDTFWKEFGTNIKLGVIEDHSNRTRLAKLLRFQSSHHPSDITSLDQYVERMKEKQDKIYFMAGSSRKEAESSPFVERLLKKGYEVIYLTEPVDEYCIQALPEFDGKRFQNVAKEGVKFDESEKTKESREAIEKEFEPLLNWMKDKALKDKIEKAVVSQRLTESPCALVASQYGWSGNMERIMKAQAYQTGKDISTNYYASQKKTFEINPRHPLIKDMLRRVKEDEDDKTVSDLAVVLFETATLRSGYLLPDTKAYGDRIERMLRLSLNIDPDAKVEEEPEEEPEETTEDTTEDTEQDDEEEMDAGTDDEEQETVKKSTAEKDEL
Hsp90β, sequence (P08238 whole entry): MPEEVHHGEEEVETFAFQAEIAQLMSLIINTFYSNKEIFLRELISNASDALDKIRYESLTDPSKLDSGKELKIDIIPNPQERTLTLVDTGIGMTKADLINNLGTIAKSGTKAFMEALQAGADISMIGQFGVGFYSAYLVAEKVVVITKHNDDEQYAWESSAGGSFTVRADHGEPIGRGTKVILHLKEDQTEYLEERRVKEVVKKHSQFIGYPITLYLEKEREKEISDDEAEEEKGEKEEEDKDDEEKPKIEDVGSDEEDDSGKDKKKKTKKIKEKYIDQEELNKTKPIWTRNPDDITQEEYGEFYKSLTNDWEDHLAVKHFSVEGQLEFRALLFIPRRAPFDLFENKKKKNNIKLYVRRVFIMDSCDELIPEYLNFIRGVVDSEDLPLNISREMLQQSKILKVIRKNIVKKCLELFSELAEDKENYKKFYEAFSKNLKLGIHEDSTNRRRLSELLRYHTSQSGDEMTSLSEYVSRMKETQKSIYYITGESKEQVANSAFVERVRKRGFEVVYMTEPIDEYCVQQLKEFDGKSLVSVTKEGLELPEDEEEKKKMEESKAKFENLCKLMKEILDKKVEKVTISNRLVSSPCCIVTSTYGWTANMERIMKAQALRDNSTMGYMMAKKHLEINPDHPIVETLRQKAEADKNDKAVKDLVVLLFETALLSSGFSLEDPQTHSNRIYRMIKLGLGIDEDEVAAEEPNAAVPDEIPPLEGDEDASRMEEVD

SMILES: Nc1ncnc2c1nc(Sc1cc3c(cc1I)OCO3)n2CCCNC(=S)Nc1ccc(-c2c3ccc(=O)cc-3oc3cc(O)ccc23)c(C(=O)O)c1 [16a]
time binding remained stable (Hsp90 in SKBr3 lysate): more than 24 h
time to reach binding equilibrium with Hsp90 (Hsp90 in SKBr3 lysate): ≤ 8 h
assay window, Hsp90β (Hsp90β): > 150 mP
assay window, Hsp90α (Hsp90α): > 150 mP
assay window, Grp94 (Grp94): > 150 mP

SMILES: Nc1ncnc2c1ncn2[C@@H]1O[C@H](COP(=O)(O)OP(=O)(O)OP(=O)(O)O)[C@@H](O)[C@H]1O [ATP]
reported greater affinity of Trap-1 than of Hsp90 (Trap-1 [1]): approximately 10 fold
Kd (Trap-1 [1]; read-out: reported binding affinity for Trap-1): 34.3 µM

decrease in binding affinity for Trap-1 compared to Hsp90 (Trap-1 [2]): 25 fold
SMILES: COC1=C2C[C@@H](C)C[C@H](OC)[C@H](O)[C@@H](C)/C=C(\C)[C@H](OC(N)=O)[C@@H](OC)/C=C\C=C(/C)C(=O)NC(=CC1=O)C2=O [compound 1, Geldanamycin]

loss of affinity for Trap-1 vs Hsp90 (Trap-1 [2]): ~2 log
SMILES: C=CCNC1=C2C[C@@H](C)C[C@H](OC)[C@H](O)[C@@H](C)/C=C(\C)[C@H](OC(N)=O)[C@@H](OC)/C=C\C=C(/C)C(=O)NC(=CC1=O)C2=O [compound 2, 17-allyl-17-demethoxygeldanamycin]

decrease in binding affinity for Trap-1 compared to Hsp90 (Trap-1 [2]): 5 fold
SMILES: COc1c(C)cnc(Cn2cnc3c(Cl)nc(N)nc32)c1C [compound 3]

decrease in binding affinity for Trap-1 compared to Hsp90 (Trap-1 [2]): 5 fold
SMILES: CC(C)NCCCn1c(Sc2cc3c(cc2I)OCO3)nc2c(N)ncnc21 [compound 4]

decrease in binding affinity for Trap-1 compared to Hsp90 (Trap-1 [2]): 50 fold
loss of affinity for Trap-1 vs Hsp90 (Trap-1 [2]): ~2 log
SMILES: CN(C)c1cc2c(cc1Sc1nc3c(N)nccc3n1CCNCC(C)(C)C)OCO2 [compound 5]

decrease in binding affinity for Trap-1 compared to Hsp90 (Trap-1 [2]): 2 fold
SMILES: CCNC(=O)c1noc(-c2cc(C(C)C)c(O)cc2O)c1-c1ccc(CN2CCOCC2)cc1 [compound 7]

preference for Hsp90α, Hsp90β and Trap-1 over Grp94 (Grp94; from apparent Kd, saturation binding): 1 log
assay window, Grp94 (Grp94): less than 100 mP
SMILES: CC(C)N(CCCn1c(Sc2cc3c(cc2I)OCO3)nc2c(N)ncnc21)C(=S)Nc1ccc(-c2c3ccc(=O)cc-3oc3cc(O)ccc23)c(C(=O)O)c1 [compound 12]
